Assay results as given in US20210340178A1, “NONAPEPTIDE PREVENTING INCREASED HYPERPERMEABILITY OF VASCULAR ENDOTHELIUM” (FEDERALNOYE GOSUDARSTVENNOE BUDGETNOE UCHREZHDENIE …, priority 2018, published 2021).
“Also recorded” adds a separate entry of the source. Where two headings read alike, the source gives them in different places. Non-standard residues stand in square brackets, D forms with d. Residues, ends and D or L forms follow the SMILES beside them.

How the values were obtained:
[1] = Peptide half-lives in human plasma in vitro (1H-NMR spectroscopy); type: in vitro ADME; details: for half-life: human, plasma
Method: Whole blood (100 mL) was collected from healthy donors to 50-mL tubes containing 5 mL of a preservative (130 mM citrate in phosphate buffered saline (PBS), pH 7.4). The blood was incubated for 15-20 min at room temperature followed by centrifugation at 1500 g for 15 min at 18° C. The supernatants were transferred to clear tubes and centrifuged as above. Dry NaBr was added to the plasma (280 mg per 1 mL of plasma). After dissolution of NaBr, the plasma (approx. 30 mL) was transferred to centrifuge tubes (Type 45Ti rotor, Beckman, USA) and layered with 20 mL of a solution (specific mass of […]), which was prepared as follows—11.42 g of NaCl and 100 mg of ethylenediaminetetraacetic acid (EDTA) were dissolved in distilled water in a final volume of 1 L (pH 7.4) and 281.44 g of NaBr was added. The plasma was centrifuged at 40,000 rpm for 48 hrs. The upper dark-yellow fraction containing lipoproteins and the colorless buffer fraction were discarded leaving approx. 1-cm high buffer above the apparent plasma border. Portions of plasma obtained from one donor were pooled and dialyzed for 36 hrs against 4 L of PSB free of Ca^2+ and Mg^2+(MP Biomedicals, USA) in dialysis bags with 12-14 kDa pore sizes. The dialysis procedure was repeated twice with fresh buffer changed every 24 hrs. After the dialysis, the plasma was centrifuged at 25,000 rpm (Type 45Ti rotor, Beckman, USA) for 15 min at 4° C. The supernatant fraction was collected and lyophilized. The dry matter was dissolved in D2O in a final volume equal to the plasma volume before NaBr was added, lyophilized again, dissolved in the same volume of D2O, and stored in 1-mL aliquots at −20° C. before use.
^1H-NMR spectroscopy was employed to analyze relative degradation of PIK7 (the claimed peptide) and MLC11-19 (the structural analogue) in human plasma. ^1H-NMR spectroscopy allows simultaneous direct monitoring the amounts of original full-length peptide and its fragments during the course of enzymatic hydrolysis (Isakova et al., 1986). Stability of a peptide, its degradation pathway(s) and a half-life estimate are available from a comparison of spectra obtained at different time points after the addition of a peptide to plasma. ^1H-NMR spectra were obtained using a WM-500 spectrometer (Bruker, Germany) at 37° C. Chemical shifts in ^1H-NMR spectra were measured relative to an internal standard (2,2-dimethyl-2-silapentane-5-sulfonate sodium salt). The signals were referenced by the double-resonance method. The resonances from peptide protons were identified by the differential spectroscopy method, i.e. the spectrum of blood plasma was subtracted from each spectrum obtained in the presence of peptide of interest. Peptide concentrations were 3 mg/ml.
These indicate the peptide N-terminus degradation. […] Therefore, the claimed peptide has an increased life-span in plasma that allows for long-lasting maintenance of its effective concentrations necessary to decrease the endothelial hyperpermeability under emergency conditions. Moreover, an increased life-time allows attaining the desired therapeutic effect with lower (as compared to homologues) peptide concentrations.

Chinchilla rabbits = assay: Tolerance of a single intravenous injection in Chinchilla rabbits; details: i.v. 10 mg/kg
Method: (§3) PIK2 dose of 5 mg/kg was calculated individually for each rabbit and administered into marginal ear vein in a final volume of 1.7-1.9 mL in sterile physiological saline. Stock concentration of the tested substance was 10 mg/mL.
(§4) During the 24-hrs testing period, the overall health status and behavior were monitored (appetite, motion activity, hair coat condition).
(§5) Before injection of test substances (baseline) and 4 hrs and 24 hrs after the injection, the following parameters were tested in whole venous blood samples (3.0-3.5 mL) collected from a marginal ear vein red blood cell (RBC) count, hematocrit, hemoglobin level, mean RBC volume, mean corpuscular hemoglobin, total leukocyte, lymphocyte, and granulocyte counts and their percentages, platelet count, and mean platelet volume. In parallel, the following biochemical parameters were measured in serum total protein, bilirubin, urea, creatinine, glucose, total cholesterol, triglycerides, and activities of alkaline phosphatase, lactate dehydrogenase, aspartate aminotransferase, and alanine aminotransferase. Blood cell count was performed using an Abacus junior vet (Austria) hematological cell counter; biochemical studies were performed using a Targa-2000 (Italy) instrument.

BALB/c mice = assay: Acute toxicity in mice, single injection; type: in vivo
Method: (§1) The study was conducted in 82 BALB/c mice (both males and females, body weight 18-24 g) obtained from the animal facility of the Scientific Center for Biomedical Technologies of the Federal Medico-Biological Agency of the Russian Federation (SCBMT). The animals were certified and otherwise healthy. The animals were kept in T-3 cages (5-10 animals per cage) with artificial 12 hrs light-dark cycles and 16× per hour forced air ventilation, temperature of 20-22° C. and 50-65% humidity on wood chips sterilized by hot air. The animals had free access to drinking water and PK-120-1 mouse cubes (GOST P50258-92; Laboratorsnab LLC, Russia).
(§2) PIK2 and PIK7 peptides were dissolved in water and administered to mice as a single intraperitoneal injection. The animals were followed for 14 days after peptide injections. An increasing dosage scheme was applied where each tested dose surpassed the previous dose by 50%. The lowest dose of the active substance was determined that caused animal death.

[2] = Acute toxicity in mice, single injection; type: in vivo; details: mouse, in vivo; mice, Table 3; read-out: Toxicity LD50 in mice
Method: as §1, §2

[3] = rabbit, in vivo
Method: as §3, §4, §5

[4] = system: EA.hy926 endothelial cell monolayer; assay: Thrombin-mediated FITC-dextran permeability through endothelial cell monolayer; type: cell-based; details: peptide 100 μM, 60 min preincubation; thrombin 100 nM; 70 kDa FITC-dextran
Method: FIG. 3. The thrombin-mediated FITC-dextran permeability through the EA.hy926 endothelial cell monolayer in the presence of myosin light chain kinase peptide inhibitors. Thrombin (100 nM) was added at 0 min, the cells were preincubated for 60 min with MLCK peptide inhibitors (100 μM). Data are presented as mean±SD, n=5. p<0.05 for all data points within the 20-180 min time course range as compared to the thrombin-stimulated control.
Effects of the claimed peptide (PIK7), the prototype (PIK2), and the analogue (MLC11-19) on the endothelial permeability was assayed in a model of FITC-dextran diffusion through the endothelial monolayer as described in Example 3.
Cells were grown in 24-well plates (Greiner Bio-one, Austria) equipped with special inserts to form inner (upper) chambers with a porous bottom (the pore diameter of 0.4 μm, pore density of 10^8/cm^2) in DMEM until monolayer was formed (3-4 days). Successful monolayer was checked by measuring FITC-dextran diffusion for 1 hour through inserts with cell monolayers vs inserts without cells (‘blank’ inserts). Experiments were performed in triplicates when tight monolayers were formed. On the day of experiment, the cells were deprived for 1 h in DMEM supplemented with MLCK inhibitors or without inhibitors (control). After deprivation, FITC-dextran was added to the upper compartment to a final concentration of 0.05 mg/ml. In 30 and 60 min, a 10-μ1 aliquot was withdrawn from the lower compartment and mixed with 100 μl phosphate buffered saline pH 7.3 in a 96-well plate to estimate the endothelial monolayer baseline permeability. […] During the next 3 hrs, every 30 min, aliquots were taken from the lower compartment, and intensity of FITC fluorescence was measured using a Victor 3X plate reader (Perkin Elmer, USA) to plot the dynamics of the FITC fluorescence changes.
As shown, 100 nM thrombin induces the endothelial hyperpermeability response as reflected by an increase in 70 kDa FITC-dextran diffusion through the endothelial monolayer and an incremental increase in the fluorescence in the lower compartment of the diffusion chamber. […]

C[C@H](NC(=O)[C@H](C)NC(=O)[C@H](CCCNC(=N)N)NC(=O)[C@@H](CCCCN)NC(=O)[C@@H](N)CCCCN)C(=O)N[C@@H](CCCNC(=N)N)C(=O)N[C@@H](C)C(=O)N[C@H](C(=O)N[C@@H](CO)C(N)=O)[C@@H](C)O [PIK7, H-Lys-D-Lys-Arg-Ala-Ala-Arg-Ala-Thr-Ser-NH2] (H-K[dK]RAARATS-NH2)
T1/2, half-life in human plasma in vitro ([1]; 1H-NMR, 37° C., peptide 3 mg/ml): ≥5.33 h
resistance to proteolysis as compared to the structural analogue (MLC11-19) ([1]; human plasma in vitro): by one order of magnitude
half-life ([1]; 1H-NMR, 37° C., peptide 3 mg/ml (FIG. 2), read-out: half-life in human plasma): ≥ 7 h
half-life ([1]; 1H-NMR, 37° C., peptide 3 mg/ml, read-out: T1/2, half-life in human plasma in vitro): > 5.33 h
other standard hematological and biochemical parameters (Chinchilla rabbits): not altered
overall health status and behavior (Chinchilla rabbits; 24-hrs testing period): no significant changes either in the overall health status or behavior
triglyceride levels (Chinchilla rabbits; 24 hrs after administration, baseline 1.63 mmol/L): 2.79 mmol/L
hematocrit (Chinchilla rabbits; 24 hrs after administration, baseline 38.81±1.49%): 35.90±0.18%
total plasma protein (Chinchilla rabbits; 24 hrs after administration, baseline 73.6±2.58 g/L): 69.2 ± 0.47 g/L
hemoglobin level (Chinchilla rabbits; 24 hrs after administration, baseline 131±5 g/L): 120 ± 7 g/L
survival (Chinchilla rabbits; group of 4): all animals survived
lowest lethal dose, fold higher than with PIK2 (BALB/c mice; BALB/c mice, single intraperitoneal injection): 47 fold
lowest dose of the active substance that caused animal death (BALB/c mice; BALB/c mice, single intraperitoneal injection, followed 14 days): 1274 mg/kg
signs after a toxic dose (BALB/c mice; mice, single intraperitoneal injection of a toxic dose): movement retardation and death within the following 24 hrs
LD50 [2]: > 1000 mg/kg
LD50 [3]: > 10 mg/kg
effect on thrombin-induced FITC-dextran hyperpermeability [4]: completely abolished the FITC-dextran hyperpermeability; also recorded: effectively abolished FITC-dextran hyperpermeability
